Assays:
Settings in all cases: exposure time: 72 h
E13 [1] = patient-derived glioblastoma stem cells of classical subtype; test: surviving fraction (nuclei count normalised to DMSO); higher = more cells surviving (less toxic)
E21 [2] = patient-derived glioblastoma stem cells of mesenchymal subtype; test: as above
E28 [3] = patient-derived glioblastoma stem cells of classical subtype; test: as above
E31 [4] = patient-derived glioblastoma stem cells of proneural subtype; test: as above
E34 [5] = patient-derived glioblastoma stem cells of proneural subtype; test: as above
E57 [6] = patient-derived glioblastoma stem cells of mesenchymal subtype; test: as above
FT3469 [7] = normal neural stem cell line; test: as above
E13 [8] = test: phenotypic distance (Euclidean, principal components) from DMSO controls (arbitrary units); higher = stronger morphological change
E21 [9] = test: as above
E28 [10] = test: as above
E31 [11] = test: as above
E34 [12] = test: as above
E57 [13] = test: as above
FT3469 [14] = test: as above
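For phenotypic distance (Euclidean, principal components) from DMSO controls in this document: cell Painting imaging in 384-well plates, CellProfiler features reduced to at least 20 principal components, Euclidean distance versus same-plate DMSO vehicle wells (0.1% v/v), median over six images per well.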
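For surviving fraction (nuclei count normalised to DMSO) in this document: nuclei counted by high-content imaging of Hoechst-stained cells in laminin-coated 384-well plates, relative to 0.1% DMSO vehicle wells, with staurosporine as cell-death control.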

CCN1CCN(C(=O)Cc2ccc(Nc3ncc(F)c(Nc4ccc(C(=O)Nc5ccccc5Cl)cc4)n3)cc2)CC1 [Aurora-A Inhibitor I]
Settings	phenotypic distance	surviving fraction
E13 [1], 4.1 nM	–	0.898
E13 [1], 12.3 nM	–	0.858
E13 [1], 37 nM	–	0.898
E13 [1], 111.1 nM	–	0.786
E13 [1], 333.3 nM	–	0.755
E13 [1], 1000 nM	–	0.643
E13 [1], 3000 nM	–	0.588
E13 [8], 4.1 nM	0.68	–
E13 [8], 12.3 nM	0.752	–
E13 [8], 37 nM	1.14	–
E13 [8], 111.1 nM	1.23	–
E13 [8], 333.3 nM	1.57	–
E13 [8], 1000 nM	2.01	–
E13 [8], 3000 nM	2.52	–
E21 [2], 4.1 nM	–	0.962
E21 [2], 12.3 nM	–	0.968
E21 [2], 37 nM	–	0.937
E21 [2], 111.1 nM	–	1.04
E21 [2], 333.3 nM	–	0.873
E21 [2], 1000 nM	–	0.369
E21 [2], 3000 nM	–	0.0545
E21 [9], 4.1 nM	0.463	–
E21 [9], 12.3 nM	0.798	–
E21 [9], 37 nM	0.695	–
E21 [9], 111.1 nM	0.686	–
E21 [9], 333.3 nM	0.809	–
E21 [9], 1000 nM	3.84	–
E21 [9], 3000 nM	8.57	–
E28 [3], 4.1 nM	–	0.826
E28 [3], 12.3 nM	–	1.04
E28 [3], 37 nM	–	0.98
E28 [3], 111.1 nM	–	1.01
E28 [3], 333.3 nM	–	0.732
E28 [3], 1000 nM	–	0.295
E28 [3], 3000 nM	–	0.265
E28 [10], 4.1 nM	0.837	–
E28 [10], 12.3 nM	1.2	–
E28 [10], 37 nM	0.715	–
E28 [10], 111.1 nM	0.655	–
E28 [10], 333.3 nM	1.3	–
E28 [10], 1000 nM	5.35	–
E28 [10], 3000 nM	7.22	–
E31 [4], 4.1 nM	–	0.968
E31 [4], 12.3 nM	–	0.879
E31 [4], 37 nM	–	0.989
E31 [4], 111.1 nM	–	0.819
E31 [4], 333.3 nM	–	0.602
E31 [4], 1000 nM	–	0.0846
E31 [4], 3000 nM	–	0.0618
E31 [11], 4.1 nM	0.624	–
E31 [11], 12.3 nM	0.904	–
E31 [11], 37 nM	0.48	–
E31 [11], 111.1 nM	0.975	–
E31 [11], 333.3 nM	1.09	–
E31 [11], 1000 nM	6.37	–
E31 [11], 3000 nM	11.8	–
E34 [5], 4.1 nM	–	0.935
E34 [5], 12.3 nM	–	0.848
E34 [5], 37 nM	–	0.988
E34 [5], 111.1 nM	–	0.958
E34 [5], 333.3 nM	–	0.736
E34 [5], 1000 nM	–	0.635
E34 [5], 3000 nM	–	0.198
E34 [12], 4.1 nM	0.739	–
E34 [12], 12.3 nM	0.951	–
E34 [12], 37 nM	0.479	–
E34 [12], 111.1 nM	0.728	–
E34 [12], 333.3 nM	0.971	–
E34 [12], 1000 nM	1.96	–
E34 [12], 3000 nM	9.28	–
E57 [6], 4.1 nM	–	0.996
E57 [6], 12.3 nM	–	0.998
E57 [6], 37 nM	–	0.968
E57 [6], 111.1 nM	–	1.03
E57 [6], 333.3 nM	–	0.905
E57 [6], 1000 nM	–	0.513
E57 [6], 3000 nM	–	0.0372
E57 [13], 4.1 nM	0.556	–
E57 [13], 12.3 nM	1.22	–
E57 [13], 37 nM	0.495	–
E57 [13], 111.1 nM	0.921	–
E57 [13], 333.3 nM	1.17	–
E57 [13], 1000 nM	3.49	–
E57 [13], 3000 nM	11.6	–
FT3469 [7], 4.1 nM	–	1.01
FT3469 [7], 12.3 nM	–	0.895
FT3469 [7], 37 nM	–	0.866
FT3469 [7], 111.1 nM	–	0.883
FT3469 [7], 333.3 nM	–	1.04
FT3469 [7], 1000 nM	–	0.483
FT3469 [7], 3000 nM	–	0.394
FT3469 [14], 4.1 nM	0.518	–
FT3469 [14], 12.3 nM	0.954	–
FT3469 [14], 37 nM	0.712	–
FT3469 [14], 111.1 nM	0.933	–
FT3469 [14], 333.3 nM	0.835	–
FT3469 [14], 1000 nM	1.89	–
FT3469 [14], 3000 nM	13.2	–

Source: the supplement of paper PMC13207355
